According to BindingDB's records for doi:10.1021/jm00108a031 (Roche Research Center, 1991):

Assay: Compound tested in vitro for Platelet activating factor receptor antagonist activity in a binding assay using washed whole dog platelets

Compound	IC50
Cc1nnc2n1-c1sc(C#Cc3ccc(CC(C)C)cc3)cc1C(c1ccccc1Cl)=NC2	100 nM
Cc1nnc2n1-c1sc(C#Cc3cccc4ccccc34)cc1C(c1ccccc1Cl)=NC2	150 nM
Cc1nnc2n1-c1sc(C#Cc3ccccc3)cc1C(c1ccccc1Cl)=NC2	100 nM
Cc1nnc2n1-c1sc(C#CC(=O)N3CCOCC3)cc1C(c1ccccc1Cl)=NC2	260 nM
Cc1nnc2n1-c1sc(/C=C\c3ccccn3)cc1C(c1ccccc1Cl)=NC2	400 nM

Assay: In vitro for platelet activating factor receptor antagonist activity in a binding assay using washed whole dog platelets.

Compound	IC50
Cc1nnc2n1-c1sc(C#Cc3ccc(C4CCCCC4)cc3)cc1C(c1ccccc1Cl)=NC2	300 nM
Cc1nnc2n1-c1sc(CCc3ccc(CC(C)C)cc3)cc1C(c1ccccc1Cl)=NC2	30 nM
Cc1nnc2n1-c1sc(C#Cc3ccc4c(c3)CCO4)cc1C(c1ccccc1Cl)=NC2	420 nM
Cc1nnc2n1-c1sc(C#Cc3ccccn3)cc1C(c1ccccc1Cl)=NC2	250 nM
Cc1nnc2n1-c1sc(C#CCO)cc1C(c1ccccc1Cl)=NC2	180 nM
Cc1nnc2n1-c1sc(CCc3ccc4c(c3)CCO4)cc1C(c1ccccc1Cl)=NC2	20 nM
Cc1nnc2n1-c1sc(C#Cc3ccc4c(c3)CCC4)cc1C(c1ccccc1Cl)=NC2	380 nM
Cc1nnc2n1-c1sc(C#C[Si](C)(C)C)cc1C(c1ccccc1Cl)=NC2	20 nM
Cc1nnc2n1-c1sc(Br)cc1C(c1ccccc1Cl)=NC2 [2-Bromo-4-(2-chloro-phenyl)-9-methyl-6H-1-thia-5,7,8,9a-tetraaza-cyclopenta[e]azulene]	300 nM
Cc1nnc2n1-c1sc(CCc3ccc(-c4ccccn4)s3)cc1C(c1ccccc1Cl)=NC2	8 nM
Cc1nnc2n1-c1sc(/C=C\c3ccc(CC(C)C)cc3)cc1C(c1ccccc1Cl)=NC2	80 nM
C#Cc1cc2c(s1)-n1c(C)nnc1CN=C2c1ccccc1Cl	10 nM
CCCCc1ccc(C#Cc2cc3c(s2)-n2c(C)nnc2CN=C3c2ccccc2Cl)cc1	650 nM
Cc1nnc2n1-c1sc(CCc3ccc(-n4ccnc4)cc3)cc1C(c1ccccc1Cl)=NC2	100 nM
Cc1nnc2n1-c1sc(/C=C\C(=O)N3CCOCC3)cc1C(c1ccccc1Cl)=NC2	180 nM
Cc1nnc2n1-c1sc(C#Cc3ccc(-c4ccccn4)s3)cc1C(c1ccccc1Cl)=NC2	60 nM
Cc1nnc2n1-c1sc(/C=C\c3ccc(C4CCCCC4)cc3)cc1C(c1ccccc1Cl)=NC2	120 nM
Cc1cc(CCc2cc3c(s2)-n2c(C)nnc2CN=C3c2ccccc2Cl)cc2c1OC(C)(C)C2	400 nM
Cc1nnc2n1-c1sc(-c3cc(=O)[nH][nH]3)cc1C(c1ccccc1Cl)=NC2	1000 nM
Cc1nnc2n1-c1sc(/C=C\c3ccc4c(c3)CCC4)cc1C(c1ccccc1Cl)=NC2	110 nM
CCCCc1ccc(/C=C\c2cc3c(s2)-n2c(C)nnc2CN=C3c2ccccc2Cl)cc1	10 nM
Cc1nnc2n1-c1sc(CCc3ccc(C4CCCCC4)cc3)cc1C(c1ccccc1Cl)=NC2	35 nM
Cc1cc(C#Cc2cc3c(s2)-n2c(C)nnc2CN=C3c2ccccc2Cl)cc2c1OC(C)(C)C2	400 nM
Cc1nnc2n1-c1sc(C(CC(=O)N3CCOCC3)N=N)cc1C(c1ccccc1Cl)=NC2 (configuration not stated)	420 nM
CCCCc1ccc(CCc2cc3c(s2)-n2c(C)nnc2CN=C3c2ccccc2Cl)cc1	10 nM
Cc1nnc2n1-c1sc(-c3nn[nH]c3C(=O)N3CCOCC3)cc1C(c1ccccc1Cl)=NC2	1000 nM
Cc1nnc2n1-c1sc(CCc3ccc4c(c3)CCC4)cc1C(c1ccccc1Cl)=NC2	20 nM
